# Read-outs that look alike come from different tables or passages of the source.
# How the values were obtained:
# [1] = test system: Ad2.1; assay: In vitro splicing (IVS) assay, qPCR-IVS-ATS, Ad2.1 substrate, HELA.2; type: biochemical; settings: payload, read-out: qPCR-IVS-ATS GMean IC50 (nM) Ad2.1 HELA.2
# [2] = test system: Ad2.2 pre-mRNA; assay: In vitro splicing (IVS) assay with HeLa nuclear extract, RT-qPCR of spliced product; type: biochemical; settings: payload, HELA.2, read-out: qPCR-IVS-ATS GMean IC50 (nM) Ad2.2 HELA.2
# Experimental: 2.1 In Vitro Splicing (IVS)
# To evaluate payload activity in a cell-free system, an in vitro splicing assay was performed. The payloads were incubated with nuclear extracts and pre-mRNA substrate minigenes.
# HeLa nuclear extract preparation: HeLa S3 cell pellets were resuspended in hypotonic buffer (10 mM HEPES pH 7.9, 1.5 mM MgCl2, 10 mM KCl, 0.2 mM PMSF, 0.5 mM DTT) and the suspension was brought up to a total of 5 packed cell volume (PCV). After centrifugation, the supernatant was discarded, and the cells were brought up to 3 PCV with hypotonic buffer and incubated on ice for 10 min. Cells were lysed using a dounce homogenizer and then centrifuged. The supernatant was discarded, and the pellet was resuspended with […] packed nuclear volume (PNV) of low salt buffer (20 mM HEPES pH 7.9, 1.5 mM MgCl2, 20 mM KCl, 0.2 mM EDTA, 25% glycerol, 0.2 mM PMSF, 0.5 mM DTT), followed by 1/2 PNV of high salt buffer (same as low salt buffer except 1.4 M KCl). The nuclei were gently mixed for 30 min before centrifuging. The supernatant (nuclear extract) was then dialyzed into storage buffer (20 mM HEPES pH 7.9, 100 mM KCl, 0.2 mM EDTA, 20% glycerol, 0.2 mM PMSF, 0.5 mM DTT). Protein concentration was determined using NanoDrop 8000 UV-Vis spectrophotometer (ThermoFisher Scientific).
# IVS: All Ad2-derived sequences (Pellizzoni et al. (1998) Cell 95(5):615-24) were cloned into pcDNA3.1(+) vector (Promega) using 5′ EcoRI and 3′ Xbal restriction sites. The plasmids were linearized using Xbal and used as DNA templates in in vitro transcription reactions. The FtzΔi intron-less plasmid (Luo and Reed (1999) 96(26):14937-42) was linearized using EcoRI. All RNAs were in vitro transcribed and then purified using MEGAScript T7 (Invitrogen) and MegaClear (Invitrogen) kits, respectively. For splicing reactions using Ad2 variant pre-mRNAs, […] were prepared using 8 μg nuclear extracts prepared from HeLa S3, 2 ng pre-mRNA, 0.2 ng FTZΔi, and varying concentrations of compounds or DMSO. After a 15 min pre-incubation at 30° C., 1 μL splicing activation buffer (0.5 mM ATP, 20 mM creatine phosphate, 1.6 mM MgCl2) was added, and the reactions were incubated for 90 min at 30° C. The reactions were then quenched with 13 μL DMSO, and 25 nL was used for RT-qPCR. RT-qPCR reactions were prepared using TaqMan RNA-to-CT 1-step kit (Life Technologies), RNA from splicing reactions, Ad2 (forward: […]; reverse: […]; probe: CTGTTGGGCTCGCGGTTG) and Ftz (forward: […]; reverse: […]; probe: […]) mRNA primer-probe sets. Prism 7 (Graphpad) was used for non-linear regression curve fitting of the formed spliced product and normalized to the control (DMSO) sample.
# [3] = test system: NCIH1650.1; assay: Herboxidiene splicing modulator cell potency, CTGlo-ATS, NCIH1650.1, 72 h; type: cell-based
# [4] = test system: THP1.1; assay: Herboxidiene splicing modulator cell potency, CTGlo-ATS, THP1.1, 72 h; type: cell-based
# [5] = Caco-2 permeability of ADC payload; type: in vitro ADME; settings: human, payload at 10 μM, 2 hours, apical to basolateral, read-out: Permeability Mean Caco-2 A-B Perm
# Experimental: 3.5.2 Caco-2 Permeability of ADC Payload
# Caco-2 cells were cultured for 21 days in transwell 24-well plates at 37° C., 95% humidity, 5% CO2. Integrity of cell monolayer was confirmed by TEER (transepithelial electrical resistance) and Lucifer yellow. Payloads were spiked in duplicate at 10 μM, separately, on both sides of the cell monolayer. Permeability rates from the apical to basolateral (A-B) direction and the basolateral to apical (B-A) direction were determined by sampling aliquots from both chambers immediately after treatment (t=0) and following incubation for 2 hours. Samples were protein precipitated with organic solvent containing internal standard and analyzed by LC-MS/MS (SCI EX; API 5500). The area ratio responses of payload/internal standard over time in both directions were used to generate permeability (cm/sec) values. Efflux ratio was calculated by dividing B-A/A-B. Control compounds for low and high permeability and efflux behaved as expected.
# [6] = biological target: SF3b complex (Homo sapiens, UniProt O75533+Q7RTV0); assay: Payload binding to the SF3b complex (SF3B1 binding); settings: SF3B1 (WT), HELA.2, read-out: SPA-ATS GMean IC50 (nM) SF3B1 (WT) HELA.2
# Experimental: Exemplary herboxidiene spliceosome modulator payloads used in the preparation of ADCs were profiled. Payloads were evaluated for binding to the SF3b complex, in vitro splicing activity, and ability to inhibit cell growth.
# [7] = payload, NCIH1650.1, read-out: CTGIo-ATS GMean GI50 (nM) 72 h NCIH1650.1
# [8] = payload, THP1.1, read-out: CTGIo-ATS GMean GI50 (nM) 72 h THP1.1
# [9] = read-out: CTGIo-ATS GMean GI50 (nM) 72 h NCIH1650.1
# [10] = read-out: CTGIo-ATS GMean GI50 (nM) 72 h THP1.1
SMILES,IC50 [1],IC50 [2],CTGIo-ATS GMean LD50 (nM) 72 h NCIH1650.1 ([3]; payload),CTGIo-ATS Mean MinResponse % 72 h NCIH1650.1 ([3]; payload),"GI50 [3, 7]",CTGIo-ATS GMean LD50 (nM) 72 h THP1.1 ([4]; payload),CTGIo-ATS Mean MinResponse % 72 h THP1.1 ([4]; payload),"GI50 [4, 8]","Papp A→B at 2 h, 10 μM [5]","GI50 [3, 9]","GI50 [4, 10]",IC50 [6]
"CNC1CCN(C(=O)OCCCCCC(=O)NC[C@H]2CC[C@H](C)[C@@H](/C(C)=C/C=C/[C@@H](C)C[C@@]3(C)O[C@@H]3[C@H](C)[C@@H](OC)[C@@H](C)O)O2)C1 (stereo partly drawn) [Compound H7, 6-((((2R,5S,6S)-6-((S,2E,4E)-7-((2R,3R)-3-((2R,3R,4R)-4-hydroxy-3-methoxypentan-2-yl)-2-methyloxiran-2-yl)-6-methylhepta-2,4-dien-2-yl)-5-methyltetrahydro-2H-pyran-2-yl)methyl)amino)-6-oxohexyl 3-(methylamino)pyrrolidine-1-carboxylate]",14.5 nM,12.1 nM,>10000 nM,5.754%,0.772 nM,6.756 nM,−99.328%,0.65 nM,–,–,–,–
"CO[C@H]([C@@H](C)[C@H]1O[C@]1(C)C[C@H](C)/C=C/C=C(\C)[C@H]1O[C@@H](CNC(=O)CCOCCOC(=O)N2CCCNCC2)CC[C@@H]1C)[C@@H](C)O [Compound H9, 2-(3-((((2R,5S,6S)-6-((S,2E,4E)-7-((2R,3R)-3-((2R,3R,4R)-4-hydroxy-3-methoxypentan-2-yl)-2-methyloxiran-2-yl)-6-methylhepta-2,4-dien-2-yl)-5-methyltetrahydro-2H-pyran-2-yl)methyl)amino)-3-oxopropoxy)ethyl 1,4-diazepane-1-carboxylate]",9.68 nM,8.66 nM,2.681 nM,2.327%,–,14.441 nM,−101.645%,–,11.6 ×10⁻⁶ cm/s,0.481 nM,1.34 nM,–
"CO[C@H]([C@@H](C)[C@H]1O[C@]1(C)C[C@H](C)/C=C/C=C(\C)[C@H]1O[C@@H](CC(=O)N[C@@H](CCCOC(=O)N2CCNCC2)C(=O)O)CC[C@@H]1C)[C@@H](C)O [Compound H4, (S)-2-(2-((2R,5S,6S)-6-((S,2E,4E)-7-((2R,3R)-3-((2R,3R,4R)-4-hydroxy-3-methoxypentan-2-yl)-2-methyloxiran-2-yl)-6-methylhepta-2,4-dien-2-yl)-5-methyltetrahydro-2H-pyran-2-yl)acetamido)-5-((piperazine-1-carbonyl)oxy)pentanoic acid]",31.6 nM,29.6 nM,2575.18 nM,728.583%,–,5337.399 nM,−40.902%,–,19.3 ×10⁻⁶ cm/s,464 nM,649 nM,14.5 nM
"CNC1CCN(C(=O)OCCOCCC(=O)NC[C@H]2CC[C@H](C)[C@@H](/C(C)=C/C=C/[C@@H](C)C[C@@]3(C)O[C@@H]3[C@H](C)[C@@H](OC)[C@@H](C)O)O2)C1 (stereo partly drawn) [Compound H10, 2-(3-((((2R,5S,6S)-6-((S,2E,4E)-7-((2R,3R)-3-((2R,3R,4R)-4-hydroxy-3-methoxypentan-2-yl)-2-methyloxiran-2-yl)-6-methylhepta-2,4-dien-2-yl)-5-methyltetrahydro-2H-pyran-2-yl)methyl)amino)-3-oxopropoxy)ethyl 3-(methylamino)pyrrolidine-1-carboxylate]",21.7 nM,16.5 nM,>10000 nM,9.194%,3.04 nM,21.021 nM,−98.789%,2.06 nM,–,–,–,–
"CO[C@H]([C@@H](C)[C@H]1O[C@]1(C)C[C@H](C)/C=C/C=C(\C)[C@H]1O[C@@H](CNC(=O)CCCCCOC(=O)N2CCCNCC2)CC[C@@H]1C)[C@@H](C)O [Compound H6, 6-((((2R,5S,6S)-6-((S,2E,4E)-7-((2R,3R)-3-((2R,3R,4R)-4-hydroxy-3-methoxypentan-2-yl)-2-methyloxiran-2-yl)-6-methylhepta-2,4-dien-2-yl)-5-methyltetrahydro-2H-pyran-2-yl)methyl)amino)-6-oxohexyl 1,4-diazepane-1-carboxylate]",9.51 nM,7.19 nM,1.336 nM,0.978%,–,6.522 nM,−101.275%,–,5.72 ×10⁻⁶ cm/s,0.219 nM,0.701 nM,–
"CNC1CCN(C(=O)O[C@@H]2C[C@H](CC(=O)O)O[C@H](/C(C)=C/C=C/[C@@H](C)C[C@@]3(C)O[C@@H]3[C@H](C)[C@@H](OC)[C@@H](C)O)[C@H]2C)C1 (stereo partly drawn) [Compound H3, 2-((2R,4R,5S,6S)-6-((S,2E,4E)-7-((2R,3R)-3-((2R,3R,4R)-4-hydroxy-3-methoxypentan-2-yl)-2-methyloxiran-2-yl)-6-methylhepta-2,4-dien-2-yl)-5-methyl-4-((3-(methylamino)pyrrolidine-1-carbonyl)oxy)tetrahydro-2H-pyran-2-yl)acetic acid]",562 nM,35.2 nM,>10000 nM,19.182%,115 nM,478.332 nM,−92.943%,54.6 nM,–,–,–,–
"CO[C@H]([C@@H](C)[C@H]1O[C@]1(C)C[C@H](C)/C=C/C=C(\C)[C@H]1O[C@@H](CNC(=O)CCOCCOC(=O)N2CCNCC2)CC[C@@H]1C)[C@@H](C)O [Compound H8, 2-(3-((((2R,5S,6S)-6-((S,2E,4E)-7-((2R,3R)-3-((2R,3R,4R)-4-hydroxy-3-methoxypentan-2-yl)-2-methyloxiran-2-yl)-6-methylhepta-2,4-dien-2-yl)-5-methyltetrahydro-2H-pyran-2-yl)methyl)amino)-3-oxopropoxy)ethyl piperazine-1-carboxylate]",12.9 nM,12.9 nM,>10000 nM,17.053%,1.1 nM,11.851 nM,−102.030%,1.22 nM,–,–,–,–
